Columns and labels:
[1] = DRUGMATRIX: Atrial Natriuretic Factor (ANF) radioligand binding (ligand: [125I] ANF (rat)); type: cell membranes, Cavia porcellus, Dunkin-Hartley, Adrenal gland, Membrane; conditions: Not Active = under 50% inhibition at 10 µM
[2] = DRUGMATRIX: Tumor Necrosis Factor (TNF), Non-Selective radioligand binding (ligand: [125I] TNF-alpha); type: cell membranes, Membrane; conditions: u-937; Not Active = under 50% inhibition at 10 µM
Cannabinoid receptor 1 = Cannabinoid receptor 1 (Homo sapiens, UniProt P21554); type: cell membranes, Chem-1, Membrane; conditions: chem-1; note: in other assays of this panel Not Active means under 50% inhibition at 10 µM
Melanocortin receptor 5 = Melanocortin receptor 5 (Homo sapiens, UniProt P33032); type: cell membranes, HEK293, Membrane; note: in other assays of this panel Not Active means under 50% inhibition at 10 µM
Caspase-1 = target: T1, Caspase-1 (Homo sapiens, UniProt P29466); parameters: species or system Escherichia coli;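 note: Caspase-1 enzyme inhibition assay with a peptide substrate; in other assays of this panel Not Active means under 50% inhibition at 10 µM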
T1 sequence (P29466 whole entry): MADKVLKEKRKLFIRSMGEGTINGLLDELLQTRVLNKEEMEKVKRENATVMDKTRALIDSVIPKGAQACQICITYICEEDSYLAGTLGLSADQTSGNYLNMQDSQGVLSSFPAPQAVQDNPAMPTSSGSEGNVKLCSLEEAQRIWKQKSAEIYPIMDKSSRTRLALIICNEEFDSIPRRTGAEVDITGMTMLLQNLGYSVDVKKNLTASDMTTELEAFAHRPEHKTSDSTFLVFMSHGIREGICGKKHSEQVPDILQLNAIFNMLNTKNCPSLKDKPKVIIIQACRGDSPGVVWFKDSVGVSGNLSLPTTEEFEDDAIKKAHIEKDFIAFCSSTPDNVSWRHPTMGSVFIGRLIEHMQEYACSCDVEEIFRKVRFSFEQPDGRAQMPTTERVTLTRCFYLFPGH

Interstitial collagenase = target: T2, Interstitial collagenase (Homo sapiens, UniProt P03956); assay: biochemical; type: tissue-based, Rheumatoid synovial fibroblasts;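 note: MMP-1 enzyme inhibition assay using a peptide substrate; in other assays of this panel Not Active means under 50% inhibition at 10 µM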
T2 sequence (P03956 whole entry): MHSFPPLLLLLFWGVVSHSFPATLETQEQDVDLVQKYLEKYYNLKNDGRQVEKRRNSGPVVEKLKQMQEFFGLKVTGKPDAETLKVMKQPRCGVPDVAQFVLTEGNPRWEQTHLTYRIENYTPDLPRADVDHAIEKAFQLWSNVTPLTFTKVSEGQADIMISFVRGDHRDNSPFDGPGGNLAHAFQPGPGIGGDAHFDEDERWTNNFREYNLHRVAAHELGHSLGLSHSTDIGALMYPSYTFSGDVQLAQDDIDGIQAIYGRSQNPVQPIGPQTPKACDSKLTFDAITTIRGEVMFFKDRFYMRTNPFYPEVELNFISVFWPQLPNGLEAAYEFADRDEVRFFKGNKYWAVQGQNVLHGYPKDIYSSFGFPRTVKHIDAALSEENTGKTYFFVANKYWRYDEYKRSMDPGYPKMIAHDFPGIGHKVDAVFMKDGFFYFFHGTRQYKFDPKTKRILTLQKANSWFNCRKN

[3] = target: Protein kinase C alpha type (Homo sapiens, UniProt P17252); type: cell-based; conditions: sf9

Melanocortin receptor 5, sequence (P33032 whole entry): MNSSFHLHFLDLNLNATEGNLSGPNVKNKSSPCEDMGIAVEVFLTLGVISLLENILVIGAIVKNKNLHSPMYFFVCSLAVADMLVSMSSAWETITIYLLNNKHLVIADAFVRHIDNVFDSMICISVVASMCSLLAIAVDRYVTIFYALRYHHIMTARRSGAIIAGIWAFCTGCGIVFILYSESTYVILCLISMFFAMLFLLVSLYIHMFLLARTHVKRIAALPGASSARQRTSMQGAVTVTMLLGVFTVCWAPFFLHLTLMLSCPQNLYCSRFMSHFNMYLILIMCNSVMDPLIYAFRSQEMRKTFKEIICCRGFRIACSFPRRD
Cannabinoid receptor 1, sequence (P21554 whole entry): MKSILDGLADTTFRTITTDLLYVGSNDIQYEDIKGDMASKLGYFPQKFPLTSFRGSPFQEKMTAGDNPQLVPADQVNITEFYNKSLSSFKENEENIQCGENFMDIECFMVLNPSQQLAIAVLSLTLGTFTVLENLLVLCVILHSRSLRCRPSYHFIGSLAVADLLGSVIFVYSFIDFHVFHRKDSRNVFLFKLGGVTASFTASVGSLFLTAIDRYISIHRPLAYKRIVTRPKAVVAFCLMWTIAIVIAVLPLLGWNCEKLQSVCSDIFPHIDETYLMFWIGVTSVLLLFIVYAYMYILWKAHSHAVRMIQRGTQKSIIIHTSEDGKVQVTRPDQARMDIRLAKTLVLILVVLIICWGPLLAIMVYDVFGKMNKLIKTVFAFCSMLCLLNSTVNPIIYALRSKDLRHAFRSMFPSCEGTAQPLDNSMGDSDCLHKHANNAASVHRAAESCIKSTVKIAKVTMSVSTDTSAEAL

Structure (SMILES) | IC50 [1] | Ki [1] | IC50 [2] | Ki [2] | IC50 (Cannabinoid receptor 1) | IC50 (Melanocortin receptor 5; hek293) | IC50 (Caspase-1) | IC50 (Interstitial collagenase) | IC50 [3] | IC50 (Caspase-1; read-out: IC50) | IC50 (Interstitial collagenase; read-out: IC50) | IC50 (Melanocortin receptor 5; read-out: IC50) | Ki (Melanocortin receptor 5; read-out: Ki)
CO[C@@H]1[C@@H](OC)[C@H](C)[C@@](O)(CC(=O)O)O[C@H]1[C@H](C)[C@H]1O[C@@]2(CC[C@@](C)([C@H]3CC[C@@](C)([C@@H]4O[C@@H]([C@H]5O[C@](C)(O)[C@H](C)C[C@@H]5C)C[C@@H]4O[C@@H]4C[C@H](OC)[C@@H](OC)[C@H](C)O4)O3)O2)C[C@H](O)[C@H]1C.N [MADURAMICIN] | Not Active | Not Active | Not Active | Not Active | Not Active | Not Active | Not Active | Not Active | Not Active |  |  |  | 
CCOC(=O)C1=C(C)NC(C)=C(C(=O)OCC)C1c1ccccc1/C=C/C(=O)OC(C)(C)C [LACIDIPINE] | Not Active | Not Active | Not Active | Not Active | Not Active | Not Active | Not Active | Not Active | Not Active |  |  |  | 
CC(C)(C)NC[C@H](O)COc1cccc2c1CCCC2=O [LEVOBUNOLOL] | Not Active | Not Active | Not Active | Not Active | Not Active | Not Active | Not Active | Not Active | Not Active |  |  |  | 
Cc1[nH]c(=O)c(C#N)cc1-c1ccncc1 [MILRINONE] | Not Active | Not Active | Not Active | Not Active | Not Active | Not Active | Not Active | Not Active | Not Active |  |  |  | 
C1CCN2C[C@@H]3C[C@@H](CN4CCCC[C@@H]34)[C@H]2C1 [SPARTEINE] | Not Active | Not Active | Not Active | Not Active | Not Active | Not Active | Not Active | Not Active | Not Active |  |  |  | 
Cc1cnc(NC(=O)C2=C(O)c3ccccc3S(=O)(=O)N2C)s1 [MELOXICAM] | Not Active | Not Active | Not Active | Not Active | Not Active | Not Active | Not Active | Not Active | Not Active |  |  |  | 
CO[C@@]12[C@H](COC(N)=O)C3=C(C(=O)C(C)=C(N)C3=O)N1C[C@@H]1N[C@@H]12 [MITOMYCIN] | Not Active | Not Active | Not Active | Not Active | Not Active | Not Active | Not Active | Not Active | Not Active |  |  |  | 
CC(Cl)(Cl)Cl [TRICHLOROETHANE] | Not Active | Not Active | Not Active | Not Active | Not Active | Not Active | Not Active | Not Active | Not Active |  |  |  | 
O=[As][O-].[Na+] [SODIUM ARSENITE] | Not Active | Not Active | Not Active | Not Active | Not Active | Not Active | Not Active | Not Active | Not Active |  |  |  | 
Cc1ccc(Cl)c(Nc2ccccc2C(=O)O)c1Cl [MECLOFENAMIC ACID] | Not Active | Not Active | Not Active | Not Active | Not Active | Not Active | Not Active | Not Active | Not Active |  |  |  | 
Cc1ccc(S(=O)(=O)NC(=O)NN2CCCCCC2)cc1 [TOLAZAMIDE] | Not Active | Not Active | Not Active | Not Active | Not Active | Not Active | Not Active | Not Active | Not Active |  |  |  | 
O=C(O)c1cc(/N=N/c2ccc(S(=O)(=O)Nc3ccccn3)cc2)ccc1O [SULFASALAZINE] | Not Active | Not Active | Not Active | Not Active | Not Active | Not Active |  |  | Not Active | 28.8 µM | 23.5 µM |  | 
CC(=O)O[C@]1(C(C)=O)CC[C@H]2[C@@H]3C[C@H](C)C4=CC(=O)CC[C@]4(C)[C@H]3CC[C@@]21C [MEDROXYPROGESTERONE ACETATE] | Not Active | Not Active | Not Active | Not Active | Not Active | Not Active | Not Active | Not Active | Not Active |  |  |  | 
CC[C@H](C)C(=O)O[C@H]1CCC=C2C=C[C@H](C)[C@H](CC[C@@H]3C[C@@H](O)CC(=O)O3)[C@H]21 [MEVASTATIN] | Not Active | Not Active | Not Active | Not Active | Not Active | Not Active | Not Active | Not Active | Not Active |  |  |  | 
CCN(CC)CCNC(=O)c1cc(Cl)c(N)cc1OC [METOCLOPRAMIDE] | Not Active | Not Active | Not Active | Not Active | Not Active | Not Active | Not Active | Not Active | Not Active |  |  |  | 
Cc1nnc(NS(=O)(=O)c2ccc(N)cc2)s1 [SULFAMETHIZOLE] | Not Active | Not Active | Not Active | Not Active | Not Active | Not Active | Not Active | Not Active | Not Active |  |  |  | 
CCC(C)(C)C(=O)O[C@H]1C[C@@H](C)C=C2C=C[C@H](C)[C@H](CC[C@@H]3C[C@@H](O)CC(=O)O3)[C@H]21 [SIMVASTATIN] | Not Active | Not Active | Not Active | Not Active | Not Active | Not Active | Not Active | Not Active | Not Active |  |  |  | 
CN1C(=O)OC(C)(C)C1=O [TRIMETHADIONE] | Not Active | Not Active | Not Active | Not Active | Not Active | Not Active | Not Active | Not Active | Not Active |  |  |  | 
CC[C@H](C)[C@@H](CO[C@@H](Cc1ccccc1)C(=O)N[C@@H](CCS(C)(=O)=O)C(=O)OC(C)C)NC[C@@H](N)CS | Not Active | Not Active | Not Active | Not Active | Not Active |  | Not Active | Not Active | Not Active |  |  | 0.122 µM | 0.114 µM
OC[C@@H](O)[C@@H](O)[C@H](O)[C@H](O)CO [MANNITOL] | Not Active | Not Active | Not Active | Not Active | Not Active | Not Active | Not Active | Not Active | Not Active |  |  |  | 
Cc1cn([C@H]2C=C[C@@H](CO)O2)c(=O)[nH]c1=O [STAVUDINE] | Not Active | Not Active | Not Active | Not Active | Not Active | Not Active | Not Active | Not Active | Not Active |  |  |  | 
C[N+]1(C)[C@@H]2C[C@@H](OC(=O)[C@H](CO)c3ccccc3)C[C@H]1[C@@H]1O[C@@H]12.[Br-] [METHSCOPOLAMINE BROMIDE] | Not Active | Not Active | Not Active | Not Active | Not Active | Not Active | Not Active | Not Active | Not Active |  |  |  | 
CC1=C(/C=C/C(C)=C/C=C/C(C)=C/C(=O)O)C(C)(C)CCC1 [TRETINOIN] | Not Active | Not Active | Not Active | Not Active | Not Active | Not Active | Not Active | Not Active | Not Active |  |  |  | 
